A melting point compilation (Tetko et al.; mined from patent text by program, amines drawn as free bases though some values may be those of a salt)
Residues, ends and D or L forms follow the SMILES beside them.

First: N#Cc1sccc1[N+](=O)[O-]
Second: CSc1sc(C(C)=O)cc1[N+](=O)[O-]
The melting point of the first is lower: 87 to 88 °C for the first, 191 to 193 °C for the second.

First: Fc1cccc(F)c1-c1nnc(-c2c(F)cccc2F)nn1
Second: CCOC(=O)c1c(S(=O)(=O)Nc2c(F)cccc2F)nn2c(C)cc(C)nc12
The melting point of the first is higher: 214 °C for the first, 88 to 110 °C for the second.

First: O=C1CCC(c2cc(F)c(F)c(F)c2)CC1
Second: O=c1c2cc(O)cc(O)c2cc2n1CCCC2
The melting point of the first is lower: 124 °C for the first, 214 to 215 °C for the second.

First: CCN(C)c1nc(-c2ccc(OC)c(OC)c2)nc2sc(C#N)c(C)c12
Second: COc1ccc(-c2c(Cl)c(CCl)nc3cc(OC)c(OC)cc23)cc1OC
The melting point of the first is lower: 133 to 135 °C for the first, 206 to 207 °C for the second.

Compared with `COc1ccc([C@H]2SC=C(c3ccccc3)N(CCN(C)C)C(=O)[C@H]2OC(C)=O)cc1`, `COc1ccc(CCNC(=O)Cc2ccc(-c3ccccc3)cc2)cc1OC` is lower in melting point: 149 to 151 °C for the first, 103 to 105 °C for the second.

Compared with `CCOC(=O)C(=O)N(C)c1cccccc1=O`, `CCOC(=O)c1cnc(-c2ccccc2[N+](=O)[O-])[nH]c1=O` is higher in melting point: 70 to 71 °C for the first, 171 to 175 °C for the second.

First: O=C(O)C(=O)Nc1cccc(-c2nnn[nH]2)c1
Second: C=C(C)C(=O)Nc1ccc(O)c(-n2nc3ccc(Cl)cc3n2)c1
The melting point of the first is higher: 240 °C for the first, 204 to 205 °C for the second.

First: CC(=O)c1cccc(Nc2ccc3ccccc3n2)c1
Second: CNc1ccccc1C(=O)c1ccccc1
The melting point of the first is higher: 181 to 183 °C for the first, 66 to 68 °C for the second.

Compared with `CCOC(=O)c1c(C)nc2snnc2c1NC(C)C`, `CCOC(=O)c1cc2c(nc1C)C(=Cc1cccs1)CCC2` is higher in melting point: 62 to 65 °C for the first, 117 to 118 °C for the second.

First: N#Cc1cc(-c2ccc(Cl)cc2)c(Br)[nH]1
Second: CC1(C)OC(c2ccc(-c3ccc(Cl)cc3)cc2)OC1=O (centres undefined)
The melting point of the first is higher: 202 to 204 °C for the first, 108 to 110 °C for the second.

First: O=C(CCCCCCS(=O)c1ccc(Cl)cc1)NO (centres undefined)
Second: NC(=O)CCCCCCn1cccc1
The melting point of the first is lower: 103 to 105 °C for the first, 228 to 233 °C for the second.

First: O=C(CC1CCCCC1)Nc1c(Cl)ccc2nc(N3CCC(c4nnn[nH]4)CC3)ccc12
Second: Nc1ccc(C23CC2C(=O)N(CC2CCCCC2)C3=O)cc1 (centres undefined)
The melting point of the first is higher: 295 to 300 °C for the first, 125 to 126 °C for the second.

`OCC1Cc2c(c(Cl)cc3c(-c4ccccc4F)noc23)O1` (centres undefined) and `Cc1noc(NS(=O)(=O)c2c(Cc3ccc4c(c3)OCO4)sc3ccccc23)c1C` cannot be ordered by melting point: 136 to 139 °C for the first, 135 to 137 °C for the second.

Compared with `CC(=O)NNc1nnc(-c2ccccc2)c(-c2ccccc2)n1`, `Cn1c(SC(C(N)=O)c2ccccc2)nc2ccccc21` (centres undefined) is higher in melting point: 166 to 168 °C for the first, 185 to 187 °C for the second.

First: CCCNCCC1Cc2ccc(C3=NNC(=O)CC3)cc2C1 (centres undefined)
Second: CC(=O)NCCC1CCc2ccc3ocnc3c21 (centres undefined)
The melting point of the first is higher: 123 to 124 °C for the first, 89 to 92 °C for the second.

First: CCCCCCOc1c(OC)cc(N)c2ncccc12
Second: CCOC(=O)c1cnc(Cl)cc1NCc1ccc(OC)c(Cl)c1
The melting point of the first is higher: 168 to 171 °C for the first, 116 to 118 °C for the second.

First: CC(=O)Oc1ccc(Cl)c2c(=O)c3ccccc3sc12
Second: O=c1[nH][nH]c(=O)c2c(O)c3ccccc3nc12
The melting point of the first is lower: 141 to 142 °C for the first, over 400 °C for the second.

First: Clc1cc(N2CCCC2)nc(Cl)n1
Second: O=C(O)c1c(Cl)c(Cl)cc([N+](=O)[O-])c1Cl
The melting point of the first is lower: 100 to 104 °C for the first, 149 to 151 °C for the second.

First: COc1cc(C)c(C(=O)CCCCCCCCCCO)c(O)c1OC
Second: CCCCCCCCCCCN(O)C(=O)N(C)C
The melting point of the first is higher: 81 °C for the first, 54 to 55 °C for the second.

Going from `CCCCOc1cc(/C=C(\OCC)C(=O)O)ccc1OCCc1ccc(OS(=O)(=O)CCCC)c(OC)c1` to `C=CCOc1ccc(C=CC(=O)c2c(OC)cc(OC)cc2OC(=O)CC)cc1`, the melting point falls from 94 °C to 83.5 °C.

Going from `CCOc1cc(OCC2CCN(C)CC2)c(F)c(C(Nc2ccc(C(=N)N)cc2)C(=O)O)c1` (racemic) to `CCOC(=O)c1ccc(OCC2(O)CCN(Cc3ccccc3)CC2)cc1`, the melting point falls from 232 °C to 100 °C.

First: CC(C)N(Cc1nc(-c2ncn3c2CN(C)C(=O)c2c(Cl)cccc2-3)no1)C(C)C
Second: CC(C)n1nc(-c2sc(C(=O)NCc3ccccn3)nc2-c2cccc(F)c2)ccc1=O
The melting point of the first is lower: 58 to 63 °C for the first, 188 to 190 °C for the second.

First: CCCn1c(=O)c2c(nc(C=Cc3cc(OC)c(OC)cc3S(=O)(=O)O)n2C)n(CCC)c1=O
Second: CCc1cc(CC)c(-c2c(O)c(C)nn(C)c2=O)c(CC)c1Br
The melting point of the first is lower: 192 to 194 °C for the first, 225 to 226 °C for the second.

First: O=[N+]([O-])c1cnc(Sc2cncc(Cl)n2)s1
Second: Cc1sc(C(=O)OCc2ccccc2)cc1[N+](=O)[O-]
The melting point of the first is higher: 108 to 110 °C for the first, 57 to 58 °C for the second.

Compared with `COc1cc(C(=O)Nc2c(C)cc3cn(CC(F)(F)F)nc3c2C(=O)NC(C)C)n(-c2ncccc2Cl)n1`, `CCOc1cc(-c2cc(C(F)F)n3ncc(C(=O)Nc4cccc(S(=O)(=O)NC(C)(C)CO)c4)c3n2)ccc1C(F)(F)F` is higher in melting point: 178 to 181 °C for the first, 250 °C for the second.

First: CON=C(C(=O)OC)c1cccc(O)c1
Second: COC=C(C(=O)OC)N(C)N1CSC(Br)=C1c1ccc(Br)cc1
The melting point of the first is lower: 39.5 to 40.5 °C for the first, 112 °C for the second.

First: CCc1cc2c(s1)-n1c(C)nnc1C(CCCCC(=O)Nc1ccccc1)N=C2c1ccc(Cl)cc1 (centres undefined)
Second: O=C(Nc1ccc(Cl)c(C(=O)Nc2ccccc2)c1O)Nc1cccc(Cl)c1Cl
The melting point of the first is lower: 238 to 240 °C for the first, 244 to 245 °C for the second.

First: CCCNC(=O)NS(=O)(=O)c1ccccc1-c1ccc(Cn2c(CCC)nc(C)c2C(=S)OCC)cc1
Second: Cc1[nH]c(C(=O)N2CCC(C(=O)NCCN(C)C)CC2)c(C)c1-c1nc2ccc(C(=O)c3ccccc3)cc2[nH]1
The melting point of the first is lower: 160 to 165 °C for the first, 258 to 260 °C for the second.

First: COc1ccc(-c2nc(-c3ccc4c(c3)OCO4)c(-c3ccc4c(c3)OCO4)[nH]2)c(OC)c1
Second: COc1ccc(OC)c(CCc2ccc3c(c2)C(=O)NCN3)c1
The melting point of the first is lower: 95 °C for the first, 138 to 140 °C for the second.

Compared with `O=C(Cl)c1ccc2c(c1I)OCO2`, `O=C(O)C1c2cc(Br)ccc2OCc2ncccc21` (centres undefined) is higher in melting point: 69 to 70 °C for the first, 126 to 127 °C for the second.

First: C[C@H](CSC(=O)c1ccccc1)C(=O)N1C(=O)N(Cc2ccccc2)C[C@H]1C(=O)OC(C)(C)C
Second: O=C1N(Cc2ccccc2)Cc2cccnc2N1c1cccc([N+](=O)[O-])c1
The melting point of the first is lower: 104 to 106 °C for the first, 144 to 145 °C for the second.

First: CC(C#N)(COc1ccc(Cl)cc1)NS(=O)(=O)Cc1ccccc1 (centres undefined)
Second: NNc1ccc(OCc2ccccc2)cc1
The melting point of the first is higher: 120 to 121 °C for the first, 101 to 103 °C for the second.

First: O=C(Cc1ccc2c(c1)OCO2)N[C@H]1CC[C@H](CCN2CCN(c3nccc4c3CCO4)CC2)CC1
Second: COc1ccccc1NC(=O)CN1CCN(c2ncccc2C#N)CC1
The melting point of the first is higher: 212 °C for the first, 174 to 175 °C for the second.

Compared with `CCOC(=O)/C(=N\OC1CCCCCCC1)c1csc(N)n1`, `O=C(CC1CCCCCC1=O)c1ccccc1` (centres undefined) is lower in melting point: 117 to 118 °C for the first, 42 to 44 °C for the second.

First: Cc1cc(C)c(C)c(C(=O)Cn2ccnc2)c1C
Second: Cc1cc(C(N)=S)c2c(c1C)C(=O)CC2
The melting point of the first is lower: 176 to 178 °C for the first, 207 to 208 °C for the second.

First: CC(=O)Oc1cc(OC(C)=O)cc(C(=O)CBr)c1
Second: CCOC(=O)C(C)(C)c1ccc(N[C@@H](CCC(N)=O)C(=O)O)cc1
The melting point of the first is lower: 61 to 62 °C for the first, 147 to 148 °C for the second.

Compared with `CCCC1CCc2cc(OC)c(Cl)c(Cl)c2C1=O` (centres undefined), `COc1ccccc1C1=CC(=O)CCC1CC(=O)O` (centres undefined) is higher in melting point: 127 to 129 °C for the first, 183 to 184 °C for the second.

Compared with `NC(=S)c1[nH]c2ccc(Cl)cc2c1S(=O)(=O)c1ccccc1`, `COC(=O)c1nc(-c2ccc(Cl)cc2)c(Cl)c(N)c1OC` is lower in melting point: 207 to 210 °C for the first, 139 to 141 °C for the second.

Compared with `CCC(O)(CC)c1cc(C)c(-c2cccc(OCc3ccc(CO)c(CO)c3)c2)c(C)c1`, `C=C1CC2C(=O)C(c3c(CC)cc(C)cc3CC)=C(OCc3ccccc3)C2C1` (centres undefined) is lower in melting point: 133 °C for the first, 87 to 88 °C for the second.

First: CC(C)(C)NS(=O)(=O)c1ccc(N)cc1
Second: CN=C1N(C)C(=O)CN1c1ccc(Cl)cc1
The melting point of the first is lower: 127 °C for the first, 150 to 152 °C for the second.

First: Cc1nnc2n1-c1ccc(C#CCn3nc4ccccn4c3=O)cc1C(c1ccccc1F)=NC2
Second: Cc1nc2c(-c3ccc(N4CCN(C)CC4)cc3)cnn2c(N)c1-c1ccc(F)c(Cl)c1
The melting point of the first is lower: 170 to 173 °C for the first, 264 to 265 °C for the second.

First: O=C(O)c1cccnc1Nc1cccc([N+](=O)[O-])c1
Second: O=C(O)c1ccsc1COc1ccc(CCCCO)cc1
The melting point of the first is higher: 262 to 264 °C for the first, 140 to 141 °C for the second.

First: CSc1c(C=NO)c(=O)n(C)c(=O)n1C
Second: CCNc1nc(SC)ncc1C(=O)O
The melting point of the first is lower: 165 °C for the first, 188 °C for the second.

First: Oc1ccc2c(c1)CCCC(c1ccccc1)=C2c1ccc(OCCCCCCSCCCC(F)(F)C(F)(F)F)cc1
Second: COc1ccc(CN(C(=O)C2CCCc3c(O)cccc32)c2ccc(C(C)C)cc2)c(OC)n1 (centres undefined)
The melting point of the first is lower: 166 °C for the first, 190 °C for the second.

First: Nc1cc2cccc(F)c2oc1=O
Second: O=C(CO)c1ccc(F)c(F)c1Nc1ccc(I)cc1F
The melting point of the first is higher: 173 to 174 °C for the first, 128 °C for the second.

Compared with `COc1ccc(C)cc1NC(=O)Nc1ccc(N2CCN(C(=O)OC(C)(C)C)C(C)C2)cc1` (centres undefined), `COc1ccc(OC)c(C(=O)/C=C/C(=C/C(=O)O)c2ccccc2)c1` is lower in melting point: 167 to 168 °C for the first, 165 °C for the second.

First: COc1cnc(CO)cc1OC
Second: CCOC(=O)C(C#N)=Cc1cc(OC)c(N)c(OC)c1
The melting point of the first is higher: 122 to 124 °C for the first, 77 to 78 °C for the second.

First: COCC(NC(C)C)c1c[nH]c2cccc(Oc3ccc(Cl)cc3)c12 (centres undefined)
Second: CC(C)(C)C(F)(F)c1ccc(C[C@H]2NC(=O)O[C@H]2c2cccc(Cl)c2)cc1 (racemic)
The melting point of the first is lower: 149 to 150 °C for the first, 188 to 190 °C for the second.

`COC(=O)c1cscc1NC(=O)CCl` and `CCOC(C#N)NC(=O)c1ccc(COC)cc1` (centres undefined) cannot be ordered by melting point: 98 to 100 °C for the first, 99 to 100 °C for the second.

First: Cc1ccc(CSc2nc3cc4c(cc3[nH]2)C(C)(C)CCC4(C)C)nc1
Second: CCc1nnc2c(O)nc3cc(Cl)ccc3n12
The melting point of the first is lower: 187 to 188 °C for the first, over 300 °C for the second.

Compared with `CC(C)NC1=NS(=O)(=O)c2c(Cl)cc(Cl)cc2N1`, `CC(C)OCC(=O)NC1CCN(CC23CC(c4ccccc42)c2ccc(Cl)cc23)CC1` (centres undefined) is lower in melting point: 291 to 293 °C for the first, 50 to 53 °C for the second.

Compared with `Cc1oc2c(C)cc(C3CC(=O)OC(=O)C3)cc2c1C`, `CC(NC(=O)C(N)Cc1ccccc1)C(=O)NCC(=O)NC(Cc1ccccc1)C(=O)NCC(=O)NC(CCCNC(=N)N)C(=O)O` (centres undefined) (H-FAGFGR-OH; configuration not given here) is lower in melting point: 170 °C for the first, 154 to 156 °C for the second.
